The values that follow come from ChEMBL document CHEMBL1201862, “PubChem BioAssay data set” (2004).

Among the test systems are HL-60; UACC-257; SN12C; COLO 205; HCC 2998; NCI-H23; NCI-H522; SR; SF-268; RXF 393; HCT-15; SF-295; Malme-3M; SK-MEL-28; OVCAR-8; HOP-92; HT-29; PC-3; MDA-N; SNB-75.
Holding throughout (test): NCI anticancer screen, dose series, 48 h

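Step 1: Grow cells in 96-well plates. Step 2: Expose to compound for 48 hours at 5 concentrations. Step 3: Interpolate endpoints linearly; if unreached, use highest concentration. GI50 marks 50% less growth.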 Calls of active or inactive are those of the source. No stated cut-off is given here; in the data, active = GI50 up to about 1.1 µM and inactive = higher.

On to `CCCCCCCCOC(=O)c1cc([N+](=O)[O-])c(Sc2[nH]cnc3ncnc2-3)c([N+](=O)[O-])c1`, for which the GI50 in the assay with HL-60 was 1.52 µM (inactive); in the assay on UACC-257, 5.62 µM (inactive); in the assay with SN12C it was 2.33 µM (inactive); with COLO 205 it was 1.6 µM (inactive); in the assay on HCC 2998, 3.66 µM (inactive); with NCI-H23, 2.45 µM (inactive). Further, the GI50 in the assay on NCI-H522 is 1.05 µM (active); in the assay on SR it was 1.1 µM (active); in the assay on SF-268, 2.38 µM (inactive); in the assay with RXF 393 it was 7.69 µM (inactive); with HCT-15, 2.23 µM; in the assay on SF-295, 3.12 µM (inactive). Also, the GI50 was 3.61 µM (inactive) in the assay on Malme-3M; 19.1 µM (inactive) in the assay on SK-MEL-28; 2.18 µM (inactive) with OVCAR-8; 0.748 µM (active) in the assay on HOP-92; 1.77 µM (inactive) in the assay with HT-29; 3.21 µM (inactive) in the assay on PC-3. The GI50 in the assay on MDA-N is 1.35 µM (inactive); in the assay on SNB-75, 2.47 µM (inactive).

In the case of `O=c1c2cc(-c3ccccc3)cnc2sn1-c1ccc(Br)cc1`, the GI50 in the assay on HL-60, in the assay on UACC-257, in the assay with SN12C, in the assay on COLO 205, with HCC 2998 and in the assay with NCI-H23 was > 100 µM (inactive) throughout. For the same molecule, the GI50 in the assay on NCI-H522 was 47.5 µM (inactive); in the assay on SR, > 100 µM (inactive); in the assay with SF-268, > 100 µM (inactive); in the assay with RXF 393, > 100 µM (inactive); in the assay on HCT-15 it was 88.9 µM; with SF-295, > 100 µM (inactive). For the same molecule, the GI50 is 51.8 µM (inactive) with Malme-3M; > 100 µM (inactive) in the assay with SK-MEL-28; > 100 µM (inactive) in the assay with OVCAR-8; > 100 µM (inactive) in the assay with HOP-92; > 100 µM (inactive) in the assay with HT-29; > 100 µM (inactive) with PC-3. For the same molecule, the GI50 in the assay on MDA-N and in the assay with SNB-75 was > 100 µM (inactive) in each case.

For the molecule `O=C1NCN(c2ccccc2)C12CCN(CCCN1CCN(CCOC(c3ccccc3)c3ccccc3)CC1)CC2`, the GI50 with HL-60 is 1.18 µM (inactive); in the assay with UACC-257, 1.47 µM (inactive); in the assay on SN12C, 3.82 µM (inactive); with COLO 205 it was 1.18 µM (inactive); in the assay on HCC 2998 it was 0.501 µM (active); with NCI-H23, 3.94 µM (inactive). For the same molecule, the GI50 in the assay on NCI-H522 was 1.73 µM (inactive); in the assay on SR, 0.561 µM (active); in the assay on SF-268 it was 2.4 µM (inactive); with RXF 393, 1.5 µM (inactive); with HCT-15 it was 1.86 µM; in the assay with SF-295 it was 2.69 µM (inactive). The GI50 in the assay on Malme-3M was 2.23 µM (inactive); in the assay on SK-MEL-28 it was 1.34 µM (inactive); in the assay with OVCAR-8 it was 3.33 µM (inactive); in the assay with HOP-92, 1.93 µM (inactive); in the assay on HT-29, 1.11 µM (active); in the assay with PC-3, 3.99 µM (inactive). The figures for the GI50 in the assay with MDA-N and in the assay on SNB-75 were 0.8 µM (active) and 2.18 µM (inactive), respectively.

`O=C1c2cc3c(cc2CC12Cc1cc4c(cc1C2=O)CCCC4)CCCC3`: the GI50 in the assay on HL-60 was 34.9 µM (inactive); in the assay with UACC-257, 10.9 µM (inactive); in the assay on SN12C, 56.2 µM (inactive); with COLO 205, > 100 µM (inactive); in the assay on HCC 2998, > 100 µM (inactive); in the assay on NCI-H23, 33.3 µM (inactive). The GI50 in the assay on NCI-H522 is > 100 µM (inactive); in the assay with SR, 37.1 µM (inactive); in the assay with SF-268 it was 29.3 µM (inactive); in the assay with RXF 393, 16.4 µM (inactive); in the assay with HCT-15, over 100 µM; in the assay with SF-295, 23.2 µM (inactive). In addition, the GI50 in the assay with Malme-3M is > 100 µM (inactive); with SK-MEL-28 it was > 100 µM (inactive); with OVCAR-8 it was > 100 µM (inactive); in the assay on HOP-92 it was 18.9 µM (inactive); with HT-29 it was > 100 µM (inactive); in the assay with PC-3 it was 40.2 µM (inactive). For the same molecule, the GI50 in the assay on MDA-N is > 100 µM (inactive); in the assay on SNB-75 it was 17.9 µM (inactive).

For the molecule `COC(C)(C)OCCN1CCN(CCN2C3=C(C=C(C(C)=O)C3)Sc3ccccc32)CC1`, the GI50 with HL-60 was 16.6 µM (inactive); with UACC-257, 20.3 µM (inactive); in the assay on SN12C it was 26.7 µM (inactive); in the assay on COLO 205 it was 17.6 µM (inactive); in the assay with HCC 2998, 20.4 µM (inactive); in the assay with NCI-H23, 27.2 µM (inactive). Also, the GI50 in the assay with NCI-H522 is 17.5 µM (inactive); in the assay with SR, 15.6 µM (inactive); in the assay with SF-268, 19.6 µM (inactive); with RXF 393, 17.9 µM (inactive); with HCT-15 it was 19.6 µM; with SF-295, 19.5 µM (inactive). Also, the GI50 was 21.3 µM (inactive) with Malme-3M; 16.4 µM (inactive) with SK-MEL-28; 20.9 µM (inactive) in the assay on OVCAR-8; 29.5 µM (inactive) with HOP-92; 18 µM (inactive) in the assay on HT-29; 24.8 µM (inactive) with PC-3. Further, the GI50 with MDA-N was 19 µM (inactive); in the assay on SNB-75, 30.5 µM (inactive).

As for `CN(C)c1ccc(C2C(Cl)C(=O)N2NC(=O)c2c(Cl)c(Cl)c(Cl)c(Cl)c2-c2nc3ccccc3[nH]2)cc1` (stereo not given), the GI50 with HL-60 was 3.3 µM (inactive); in the assay on UACC-257 it was 20.5 µM (inactive); with SN12C, 11.1 µM (inactive); with COLO 205, 7.67 µM (inactive); in the assay on HCC 2998, 16.3 µM (inactive); in the assay on NCI-H23, 12.5 µM (inactive). Moreover, the GI50 in the assay with NCI-H522 was 2.79 µM (inactive); in the assay with SR, 0.685 µM (active); with SF-268, 11.5 µM (inactive); in the assay with RXF 393 it was 2.48 µM (inactive); in the assay with HCT-15, 12.9 µM; in the assay on SF-295 it was 42.6 µM (inactive). The GI50 in the assay with Malme-3M was 16.3 µM (inactive); with SK-MEL-28 it was 28.1 µM (inactive); in the assay on OVCAR-8 it was 2.4 µM (inactive); in the assay on HOP-92, 5.4 µM (inactive); with HT-29 it was 22.3 µM (inactive); in the assay with PC-3, 12.9 µM (inactive). Besides, the GI50 in the assay with MDA-N was 5.77 µM (inactive); with SNB-75, 15.6 µM (inactive).

As to `O=C(O)C(Cc1c[nH]c2ccccc12)C(=O)NO` (stereo not given), the GI50 was 53.7 µM (inactive) in the assay on HL-60; > 100 µM (inactive) with UACC-257; > 100 µM (inactive) with SN12C; > 100 µM (inactive) with COLO 205; > 100 µM (inactive) in the assay on HCC 2998; > 100 µM (inactive) in the assay on NCI-H23. In addition, the GI50 is > 100 µM (inactive) with NCI-H522; > 100 µM (inactive) in the assay on SR; > 100 µM (inactive) with SF-268; > 100 µM (inactive) in the assay on RXF 393; over 100 µM in the assay on HCT-15; > 100 µM (inactive) with SF-295. Also, the GI50 is > 100 µM (inactive) in the assay on Malme-3M; > 100 µM (inactive) with SK-MEL-28; > 100 µM (inactive) in the assay with OVCAR-8; > 100 µM (inactive) in the assay on HOP-92; > 100 µM (inactive) in the assay on HT-29; 64.1 µM (inactive) in the assay with PC-3. The GI50 in the assay with MDA-N and in the assay on SNB-75 was > 100 µM (inactive) each time.

Regarding `CC(=O)Nc1ccc(-c2nc3ccccc3s2)cc1Br`, the GI50 was > 100 µM (inactive) with HL-60; > 100 µM (inactive) with UACC-257; > 78.9 µM (inactive) in the assay with SN12C; > 86.7 µM (inactive) in the assay on COLO 205; 0.29 µM (active) in the assay on HCC 2998; 27.4 µM (inactive) in the assay with NCI-H23. Moreover, the GI50 was > 72.3 µM (inactive) with NCI-H522; > 100 µM (inactive) in the assay with SR; 44.3 µM (inactive) in the assay on SF-268; 23.4 µM (inactive) in the assay on RXF 393; over 59.7 µM in the assay on HCT-15; 30.8 µM (inactive) in the assay with SF-295. Further, the GI50 in the assay on Malme-3M is > 62.1 µM (inactive); with SK-MEL-28, > 100 µM (inactive); in the assay on OVCAR-8 it was 31 µM (inactive); in the assay with HOP-92, 46 µM (inactive); with HT-29, > 63.7 µM (inactive); in the assay with PC-3, > 100 µM (inactive). Also, the results for the GI50 in the assay with MDA-N and in the assay with SNB-75 were > 100 µM (inactive) and 32.1 µM (inactive), respectively.

With `COc1ccc2cc(CNCCOCCOCCNCc3ccc4cc(OC)ccc4c3)ccc2c1`, the GI50 in the assay on HL-60 was 0.216 µM (active); in the assay on UACC-257, 1.58 µM (inactive); with SN12C it was 1.72 µM (inactive); with COLO 205, 0.162 µM (active); in the assay on HCC 2998 it was 0.104 µM (active); with NCI-H23, 1.5 µM (inactive). For the same molecule, the GI50 was 1.54 µM (inactive) in the assay with NCI-H522; 0.251 µM (active) in the assay on SR; 1.42 µM (inactive) in the assay with SF-268; 1.53 µM (inactive) in the assay on RXF 393; 0.527 µM in the assay on HCT-15; 1.17 µM (inactive) in the assay on SF-295. Also, the GI50 with Malme-3M is 1.43 µM (inactive); in the assay on SK-MEL-28, 0.869 µM (active); with OVCAR-8, 1.49 µM (inactive); in the assay with HOP-92, 0.593 µM (active); with HT-29 it was 0.192 µM (active); in the assay with PC-3, 1.54 µM (inactive). Further, the GI50 is 0.889 µM (active) with MDA-N and 1.38 µM (inactive) in the assay with SNB-75.

With `CCCCCC(=O)Nc1[nH]cnc1C(N)=O`, the GI50 in the assay with HL-60, with UACC-257, with SN12C, in the assay on COLO 205, with HCC 2998 and in the assay on NCI-H23 was > 100 µM (inactive) in each case. Further, the GI50 with NCI-H522 is > 100 µM (inactive); in the assay with SR, > 100 µM (inactive); in the assay on SF-268, > 100 µM (inactive); in the assay with RXF 393 it was > 100 µM (inactive); in the assay with HCT-15 it was over 100 µM; in the assay on SF-295 it was > 100 µM (inactive). Further, the GI50 in the assay with Malme-3M was > 100 µM (inactive); in the assay with SK-MEL-28, > 100 µM (inactive); in the assay on OVCAR-8, > 100 µM (inactive); in the assay on HOP-92, 71.3 µM (inactive); with HT-29, > 100 µM (inactive); in the assay on PC-3, > 100 µM (inactive). For the same molecule, the GI50 in the assay with MDA-N and with SNB-75 was > 100 µM (inactive) in each case.
